According to patent US20020006399A1, “Therapeutic uses of hormonal manipulation using combinations of various agents to treat atherosclerosis” (priority 1999, published 2002):
Where a name gives a salt, the structure may show the parent alone.

What was measured:
Type in all cases: in vivo
prostate cancer patients = experiment: Retrospective chart review: cardiac events in prostate cancer patients treated with LHRH inhibitors vs controls; conditions: for Events/Year: cardiac events per subject year, Total Control .0338; for observed difference between the proportions vs Total Control: events/year, treated group vs Total Control (Groups 1 + 4); for Cardiac Events: heart attack, coronary artery bypass or angioplasty, on drug at least one year, Total Control 32 events over 948 subject years; for heart attacks compared with controls: treated patients vs controls
Procedure: Another retrospective study was performed which compared the rates of patient reported heart attack in several groups 1-control group of males entering the urology office for any routine complaint. 2-a group of prostate cancer patients treated with Leuprolide acetate, a LHRH inhibitor. 3-a group of prostate cancer patients treated with Goserelin acetate (Zoladex), a LHRH inhibitor. 4-a group of prostate cancer patients not treated with hormonal manipulation (neither Leuprolide or Goserelin). 5-all patients on LHRH inhibitors (group 2+group 3). The patients on either Leuprolide or Goserelin were treated with the recommended doses indicated for the treatment of prostatic carcinoma, at either one or three month intervals depending on the preparation used. Leuprolide was dosed at 7.5 mg monthly (single intramuscular injection) or at 22.5 mg at 3 month intervals (single intramuscular injection). Goserelin was dosed at 3.6 mg monthly or at a dose of 10.8 mg at 3 month intervals (subcutaneous injection). The various groups of office patients were evaluated by chart […]. In groups 2 and 3 only those on drug for at least one year were considered. Cardiac event is defined either the history of a heart attack or occurrence of coronary artery bypass or angioplasty. In control groups only events occurring in the 3 years prior to the questionnaire are charted.

[1] = system: patients treated for benign prostatic hypertrophy; experiment: Clinical observation of patients given finasteride for benign prostatic hypertrophy; conditions: finasteride single oral 5 mg tablet a day for BPH
Procedure: Finasteride was being administered at a dosage of a single oral 5 mg tablet a day. This is the same tablet used in treatment of BPH as disclosed in U.S. Pat. No. 5,175,155 and such dosage applies in the present invention. However, use of a 2 mg or 10 mg oral tablet is contemplated.

[2] = system: patients diagnosed with benign prostatic hypertrophy; experiment: First retrospective study: cardiac events (cardiac bypass or heart attack) in BPH patients on finasteride vs alpha-blocker control; conditions: finasteride treated group of 22 subjects, 61 subject-years, on drug at least a year, 5 mg oral tablet a day; control 7 events over 288 subject-years
Procedure: Finasteride was being administered at a dosage of a single oral 5 mg tablet a day. This is the same tablet used in treatment of BPH as disclosed in U.S. Pat. No. 5,175,155 and such dosage applies in the present invention. However, use of a 2 mg or 10 mg oral tablet is contemplated. Two studies were undertaken to determine whether finasteride was, in fact, effective in lessening the incidence of heart disease and other complications of atherosclerosis. The result of the first study is as follows; A list of patients diagnosed with benign prostatic hypertrophy in late 1992 and 1993 was located. Treatment had been initiated with either finasteride or another oral agent of a different class (alpha-blocker). Patients were then contacted and an interval history was taken. In the control group of 45 subjects, 7 events (either cardiac bypass or heart attack) occurred in 6 subjects over 288 subject-years. In the finasteride treated group of 22 subjects there were no events over 61 subject-years. […] (95% Cl equal to 0.65% to 4.2%).

patients of the practice = experiment: Second study: questionnaire on cardiac events in patients of the practice treated with finasteride
Procedure: Finasteride was being administered at a dosage of a single oral 5 mg tablet a day. This is the same tablet used in treatment of BPH as disclosed in U.S. Pat. No. 5,175,155 and such dosage applies in the present invention. However, use of a 2 mg or 10 mg oral tablet is contemplated. Two studies were undertaken to determine whether finasteride was, in fact, effective in lessening the incidence of heart disease and other complications of atherosclerosis. In the second study patients of the practice were given a questionnaire. Various patients had been treated with finasteride for varying lengths of time. Only those on the drug for at least one year were considered. The average time on finasteride was 3 years. The number of cardiac events occurring in the patients taking finasteride was only 4 events over 242 patient-years. (1.6%/yr.) In the control group 26 events occurred in the 3 years prior over 732 patient-years. (3.5%/yr.) The 45% decrease observed in cardiac events is believed to be significant. (90% Cl equal to 1.4% to 3.7%).

Row | SMILES | Events/Year (prostate cancer patients) | observed difference between the proportions vs Total Control (prostate cancer patients) | Cardiac Events (prostate cancer patients) | heart attacks compared with controls (prostate cancer patients) | incidence of atherosclerosis and heart disease (observation) [1] | events (either cardiac bypass or heart attack) [2] | cardiac event rate (patients of the practice; 4 events over 242 patient-years, control 3.5%/yr) [%/yr] | decrease observed in cardiac events (patients of the practice; finasteride vs control group) [%] | number of cardiac events (patients of the practice; over 242 patient-years, on drug at least one year, average 3 years, control 26 events over 732 patient-years) [events]
1 | CCNC(=O)[C@@H]1CCCN1C(=O)[C@H](CCCNC(=N)N)NC(=O)[C@H](CC(C)C)NC(=O)[C@@H](CC(C)C)NC(=O)[C@H](Cc1ccc(O)cc1)NC(=O)[C@H](CO)NC(=O)[C@H](Cc1c[nH]c2ccccc12)NC(=O)[C@H](Cc1c[nH]cn1)NC(=O)[C@@H]1CCC(=O)N1 [Lupron, 5-oxo-L-prolyl-L-histidyl-L-tryptophyl-L-seryl-L-tyrosyl-D-leucyl-L-leucyl-L-arginyl-N-ethyl-L-prolinamide acetate (salt)] | .00847 | 0.253 | 1 | fewer heart attacks than controls | – | – | – | – | –
2 | CC(C)C[C@H](NC(=O)[C@@H](COC(C)(C)C)NC(=O)[C@H](Cc1ccc(O)cc1)NC(=O)[C@H](CO)NC(=O)[C@H](Cc1c[nH]c2ccccc12)NC(=O)[C@H](Cc1cnc[nH]1)NC(=O)[C@@H]1CCC(=O)N1)C(=O)N[C@@H](CCCNC(=N)N)C(=O)N1CCC[C@H]1C(=O)NNC(N)=O [Zoladex, pyro-Glu-His-Trp-Ser-Tyr-D-Ser(Bu)-Leu-Arg-Pro-Azgly-NH2 acetate] | .0161 | 0.0177 | 1 | fewer heart attacks than controls | – | – | – | – | –
3 | CC(C)(C)NC(=O)[C@H]1CC[C@H]2[C@@H]3CC[C@H]4NC(=O)C=C[C@]4(C)[C@H]3CC[C@]12C [finasteride, 4-azaandrost-1-ene-17-carboxamide, N-(1,1-dimethylethyl)-3oxo-(5alpha 17beta)-] | – | – | – | – | lower incidence of atherosclerosis and heart disease | no events | 1.6 | 45 | 4
